According to publication PMC12218520, “Oxyresveratrol suppressed melanogenesis, dendrite formation, and melanosome transport in melanocytes via regulation of the MC1R/cAMP/MITF pathway” (Scientific Reports, 2025):
Where two headings read alike, the source gives them in different places. Each block holds one compound with its values, some of them ahead of it.

Key:
[1] = target: T1, human tyrosinase (Homo sapiens, UniProt P14679); experiment: L-DOPA oxidation assay with recombinant human tyrosinase, absorbance at […] nm; assay type: biochemical
T1 construct: gene TYR; recombinant human tyrosinase (OriGene TP321797L)
T1 sequence (P14679 19-529): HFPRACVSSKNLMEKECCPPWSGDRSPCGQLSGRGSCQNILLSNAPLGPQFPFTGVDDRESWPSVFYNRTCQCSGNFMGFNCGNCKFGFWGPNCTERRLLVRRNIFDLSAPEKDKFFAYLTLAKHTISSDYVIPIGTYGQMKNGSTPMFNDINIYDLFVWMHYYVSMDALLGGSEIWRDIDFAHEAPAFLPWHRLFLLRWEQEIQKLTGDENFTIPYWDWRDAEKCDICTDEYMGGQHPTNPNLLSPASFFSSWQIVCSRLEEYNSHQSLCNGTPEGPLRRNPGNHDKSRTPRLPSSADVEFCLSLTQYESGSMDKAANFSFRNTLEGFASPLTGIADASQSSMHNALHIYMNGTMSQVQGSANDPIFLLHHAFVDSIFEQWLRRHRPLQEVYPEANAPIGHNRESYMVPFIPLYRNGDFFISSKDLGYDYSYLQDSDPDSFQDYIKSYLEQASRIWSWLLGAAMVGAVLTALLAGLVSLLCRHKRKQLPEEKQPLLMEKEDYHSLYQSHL

[2] = target: T1, human tyrosinase; experiment: substrate of the tyrosinase assay ([…]), absorbance at […] nm; assay type: biochemical

- IC50 ([1]; read-out: IC50 (μg/mL) (converted)): 88.5 µM
Structure (SMILES): CC(c1ccccc1)c1ccc(O)cc1O (stereo not drawn) [compound 3, Phenylethyl resorcinol]

Structure (SMILES): N[C@@H](Cc1ccc(O)c(O)c1)C(=O)O [L-DOPA]
- substrate of the tyrosinase assay (0.5 mM), absorbance at 492 nm [2]: Inhibition of human tyrosinase activity by oxyresveratrol, resveratrol, phenylethyl resorcinol, and glabridin in vitro, using L-DOPA as substrate.

Structure (SMILES): Oc1ccc(/C=C/c2cc(O)cc(O)c2)cc1 [compound 2, Resveratrol]
- IC50 [1]: 57.2 µM
